Measurements: PubChem BioAssay AID2060499 (Molecular Pharmacology Branch, DTP, NCI, 2025)

Test system: 777334-354-R2-J4-PDC tumor spheroids with HUVEC/MSC, viability
Assay: Anticancer human tumor 777334-354-R2-J4-PDC patient-derived pancreatic adenocarcinoma cell line growth inhibition [GQUAD]
Details: for IC50: curve of first compound; for viability, T/C: stronger effect = lower value
Procedure, shortened: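 Viability of tumor cells grown as complex spheroids with endothelial and stromal cells, exposed to drug combinations. Top concentration at or near clinical Cmax (else 10 microM), diluted in half-log increments.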

[1] = second compound 0.0316 µM, first compound 0.0316 µM
[2] = second compound 0.0316 µM, first compound 0.316 µM
[3] = second compound 0.1 µM, first compound 0.0316 µM
[4] = second compound 0.1 µM, first compound 0.316 µM
[5] = second compound 0.316 µM, first compound 0.0316 µM
[6] = second compound 0.316 µM, first compound 0.316 µM
[7] = second compound 1 µM, first compound 0.0316 µM
[8] = second compound 1 µM, first compound 0.316 µM
[9] = second compound 3.16 µM, first compound 0.0316 µM
[10] = second compound 3.16 µM, first compound 0.316 µM
[11] = second compound 10 µM, first compound 0.0316 µM
[12] = second compound 10 µM, first compound 0.316 µM
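Also: spheroids exposed to compounds for 7 days before readout.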

Work on `Cc1[nH]c2ccccc2c1CCNCc1ccc(/C=C/C(=O)NO)cc1` + Cc1[nH]c2ccc(F)cc2c1-c1nc2c3cccnc3c3ncccc3c2[nH]1 yielded an IC50 (second compound 0.0316 µM) of 189 nM, an IC50 (second compound 0.1 µM) of 215 nM and an IC50 (second compound 0.316 µM) of 207 nM. It also gave an IC50 (second compound 1 µM) of 176 nM, an IC50 (second compound 3.16 µM) of under 0.999 nM and an IC50 (second compound 10 µM) of under 0.999 nM. It also gave a viability, T/C (second compound 0.0316 µM, first compound 0.000999 µM) of 114%, a viability, T/C (second compound 0.0316 µM, first compound 0.00316 µM) of 91.3% and a viability, T/C (second compound 0.0316 µM, first compound 0.00999 µM) of 103%. For the same compound, the viability, T/C [1] was 78.2%, the viability, T/C (second compound 0.0316 µM, first compound 0.0999 µM) was 74.5% and the viability, T/C [2] was 33.8%. The viability, T/C (second compound 0.1 µM, first compound 0.000999 µM) was 103%, the viability, T/C (second compound 0.1 µM, first compound 0.00316 µM) was 94% and the viability, T/C (second compound 0.1 µM, first compound 0.00999 µM) was 102%. The viability, T/C [3] was 90.6%, the viability, T/C (second compound 0.1 µM, first compound 0.0999 µM) was 73.1% and the viability, T/C [4] was 38.5%. For the same compound, the viability, T/C (second compound 0.316 µM, first compound 0.000999 µM) was 90.2%, the viability, T/C (second compound 0.316 µM, first compound 0.00316 µM) was 92.2% and the viability, T/C (second compound 0.316 µM, first compound 0.00999 µM) was 109%. The viability, T/C [5] was 92.7%, the viability, T/C (second compound 0.316 µM, first compound 0.0999 µM) was 79% and the viability, T/C [6] was 33.1%. The viability, T/C (second compound 1 µM, first compound 0.000999 µM) was 97.9%, the viability, T/C (second compound 1 µM, first compound 0.00316 µM) was 80.3% and the viability, T/C (second compound 1 µM, first compound 0.00999 µM) was 78.4%. The viability, T/C [7] was 91.2%, the viability, T/C (second compound 1 µM, first compound 0.0999 µM) was 70.4% and the viability, T/C [8] was 29.2%. The viability, T/C (second compound 3.16 µM, first compound 0.000999 µM) was 46%, the viability, T/C (second compound 3.16 µM, first compound 0.00316 µM) was 37.7% and the viability, T/C (second compound 3.16 µM, first compound 0.00999 µM) was 41%. For the same compound, the viability, T/C [9] was 49.3%, the viability, T/C (second compound 3.16 µM, first compound 0.0999 µM) was 52.5% and the viability, T/C [10] was 38.7%. For the same compound, the viability, T/C (second compound 10 µM, first compound 0.000999 µM) was 46.3%, the viability, T/C (second compound 10 µM, first compound 0.00316 µM) was 24.8% and the viability, T/C (second compound 10 µM, first compound 0.00999 µM) was 38.9%. It also gave a viability, T/C [11] of 35%, a viability, T/C (second compound 10 µM, first compound 0.0999 µM) of 41.6% and a viability, T/C [12] of 32.1%.

`O=C(NO)c1cnc(N2CCN(S(=O)(=O)c3ccc4ccccc4c3)CC2)nc1` + Cc1[nH]c2ccc(F)cc2c1-c1nc2c3cccnc3c3ncccc3c2[nH]1 showed an IC50 (second compound 0.0316 µM) of 1440 nM, an IC50 (second compound 0.1 µM) of 1390 nM and an IC50 (second compound 0.316 µM) of 1520 nM. For the same compound, the IC50 (second compound 1 µM) was 1580 nM, the IC50 (second compound 3.16 µM) was 1050 nM and the IC50 (second compound 10 µM) was under 31.6 nM. It also gave a viability, T/C [1] of 104%, a viability, T/C (second compound 0.0316 µM, first compound 0.1 µM) of 91.6% and a viability, T/C [2] of 87.3%. It also gave a viability, T/C (second compound 0.0316 µM, first compound 1 µM) of 68.3%, a viability, T/C (second compound 0.0316 µM, first compound 3.16 µM) of 12.7% and a viability, T/C (second compound 0.0316 µM, first compound 10 µM) of 2.55%. The viability, T/C [3] was 92.7%, the viability, T/C (second compound 0.1 µM, first compound 0.1 µM) was 101% and the viability, T/C [4] was 91.6%. The viability, T/C (second compound 0.1 µM, first compound 1 µM) was 64.6%, the viability, T/C (second compound 0.1 µM, first compound 3.16 µM) was 13.6% and the viability, T/C (second compound 0.1 µM, first compound 10 µM) was 0.23%. It also gave a viability, T/C [5] of 99.2%, a viability, T/C (second compound 0.316 µM, first compound 0.1 µM) of 92.9% and a viability, T/C [6] of 86.2%. The viability, T/C (second compound 0.316 µM, first compound 1 µM) was 67.1%, the viability, T/C (second compound 0.316 µM, first compound 3.16 µM) was 22% and the viability, T/C (second compound 0.316 µM, first compound 10 µM) was 2.6%. It also gave a viability, T/C [7] of 88.4%, a viability, T/C (second compound 1 µM, first compound 0.1 µM) of 84.6% and a viability, T/C [8] of 71.8%. It also gave a viability, T/C (second compound 1 µM, first compound 1 µM) of 70.1%, a viability, T/C (second compound 1 µM, first compound 3.16 µM) of 22.5% and a viability, T/C (second compound 1 µM, first compound 10 µM) of 2.98%. It also gave a viability, T/C [9] of 55.7%, a viability, T/C (second compound 3.16 µM, first compound 0.1 µM) of 41.7% and a viability, T/C [10] of 67%. It also gave a viability, T/C (second compound 3.16 µM, first compound 1 µM) of 50.5%, a viability, T/C (second compound 3.16 µM, first compound 3.16 µM) of 17.5% and a viability, T/C (second compound 3.16 µM, first compound 10 µM) of 0.99%. It also gave a viability, T/C [11] of 38.4%, a viability, T/C (second compound 10 µM, first compound 0.1 µM) of 38.7% and a viability, T/C [12] of 52.4%. It also gave a viability, T/C (second compound 10 µM, first compound 1 µM) of 41.9%, a viability, T/C (second compound 10 µM, first compound 3.16 µM) of 19.7% and a viability, T/C (second compound 10 µM, first compound 10 µM) of 2.58%.
